Data: paper PMC3811095 (Chemical science (Royal Society of Chemistry : 2010), 2011)

How the values were obtained:
[1] = system: MT-2 human T-cells; assay: General cytotoxicity in MT-2 cells in the absence of virus
[2] = system: wild-type IIIB strain of HIV-1 in MT-2 human T-cells; assay: Antiviral activity against HIV-1; format: cell-based; settings: HIV-1 IIIB, MT-2 cells, multiplicity of infection 0.1; activity above background

Structure (SMILES)	general cytotoxicity (in words) ([1]; same (low nanomolar) range of concentrations)	protection of cells from cell death due to viral killing [2]	IC50 ([1]; read-out: IC50 (general cytotoxicity), absence of virus, concentration at which 50 % of the cells are killed)
O=C1Nc2ccc(Cl)cc2[C@@](C#CC2CC2)(C(F)(F)F)O1 [Efavirenz, reference compound]	no general cytotoxicity	–	–
C[C@H]1CCCC[C@H]2C(=O)C=C[C@H](O)[C@@H]2CC(=O)O1 [Sch-642305]	–	below 50%	750 nM
